Data on 10 compounds can be found in ChEMBL document CHEMBL1201862, “PubChem BioAssay data set” (2004).

Structures are written as SMILES.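 Growth conditions: 96-well plates. Treatment: test compound, 48 hours, 5 concentrations. Analysis: linear interpolation between bracketing concentrations; unreached endpoints set to highest concentration. At the GI50, growth is halved.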 The source made the active and inactive calls. Cut-off read from the data, not from the text of the source: active = GI50 up to about 1.1 µM and inactive = higher.

Common to all, as to assay: NCI tumour cell line growth inhibition, 48 h
In assay [1] the test system is M14.
For assay [2], the system named is OVCAR-3.
In assay [3] the test system is SNB-19.
Assay [4] concerns Hs-578T.
Assay [5] has as its system UACC-62.
Assay [6] relates to K562.
For assay [7], the system named is MCF7.
Assay [8] relates to RXF 393.
In assay [9] the test system is SK-MEL-5.
The test system of assay [10] is T47D.
Assay [11] deals with PC-3.
Assay [12] concerns SNB-75.
Assay [13] has as its system HCT-15.
Assay [14] relates to SK-MEL-2.
For assay [15], the system named is KM12.
Assay [16] has as its system HOP-92.
For assay [17], the system named is IGROV-1.
Assay [18] deals with SN12C.
Assay [19] deals with ACHN.
The test system of assay [20] is OVCAR-5.

In the case of `O=C(C/C(=N/O)C(=O)NC1=C(Cl)C(=O)c2ccccc2C1=O)CC(c1ccccc1)c1c(O)c2ccccc2oc1=O` (stereo not drawn), the GI50 was 4.59 µM (inactive) in [1]; 3.88 µM (inactive) in assay [2]; 19.1 µM (inactive) in [3]; 6.76 µM (inactive) in assay [4]; 3.14 µM (inactive) in [5]; 16.3 µM (inactive) in assay [6]. Besides, the GI50 in assay [7] is 6.85 µM (inactive); in [8] it was 13.2 µM (inactive); in [9] it was 1.12 µM (inactive); in assay [10] it was 12.1 µM (inactive); in assay [11], 3.92 µM (inactive); in assay [12] it was 3.87 µM (inactive). The GI50 in assay [13] was 3.16 µM; in assay [14] it was 10.6 µM (inactive); in assay [15] it was 3.5 µM (inactive); in [16], 22.3 µM (inactive); in [17], 4.52 µM (inactive); in assay [18], 8.97 µM (inactive). Further, the GI50 was 19.8 µM (inactive) in assay [19] and 17.7 µM (inactive) in assay [20].

On to `COC(=O)C1(CCC(=O)N(C)c2ccccc2)NNC2C(=O)N(c3ccccc3)C(=O)C21` (stereo not drawn), for which the GI50 in assay [1], in assay [2], in [3], in assay [4], in [5] and in [7] was > 10 µM (inactive) throughout. Besides, the GI50 was > 10 µM (inactive) in assay [8]; > 10 µM (inactive) in assay [9]; > 10 µM (inactive) in assay [10]; > 10 µM (inactive) in [11]; > 10 µM (inactive) in assay [12]; over 10 µM in [13]. Also, the GI50 in assay [14], in [15], in assay [16], in [17], in [18] and in [19] was > 10 µM (inactive) in each case. For the same compound, in assay [20], the GI50 is > 10 µM (inactive).

Consider `CN(N=O)C(=N)NC(=O)c1ccccc1`, for which the GI50 in assay [1] is > 100 µM (inactive); in assay [2] it was > 100 µM (inactive); in assay [3], > 100 µM (inactive); in assay [4] it was > 100 µM (inactive); in assay [5] it was 56.5 µM (inactive); in [6] it was > 100 µM (inactive). Further, the GI50 is 54.7 µM (inactive) in assay [7]; > 100 µM (inactive) in assay [8]; 45.4 µM (inactive) in assay [9]; > 100 µM (inactive) in assay [10]; > 100 µM (inactive) in [11]; 51.5 µM (inactive) in assay [12]. Further, the GI50 in assay [13] is over 100 µM; in assay [14] it was > 100 µM (inactive); in assay [15] it was > 100 µM (inactive); in assay [16], > 100 µM (inactive); in assay [17], > 100 µM (inactive); in assay [19], > 100 µM (inactive). In addition, in [20], the GI50 is > 100 µM (inactive).

`COC(=O)c1ccc2n1C1CC3CC(CC2C3)C1`: the GI50 was > 100 µM (inactive) in assay [1]; > 100 µM (inactive) in [2]; > 100 µM (inactive) in [3]; 16.2 µM (inactive) in assay [4]; 41.2 µM (inactive) in [5]; 51.2 µM (inactive) in assay [6]. The GI50 in assay [7] was > 100 µM (inactive); in [8], 21.5 µM (inactive); in [9], 30.9 µM (inactive); in [10], 53.6 µM (inactive); in assay [11], 40 µM (inactive); in assay [12] it was > 100 µM (inactive). Further, the GI50 in [13] was over 100 µM; in [14], 70.6 µM (inactive); in assay [15], > 100 µM (inactive); in [16], 24.8 µM (inactive); in assay [17] it was > 100 µM (inactive); in [18], > 100 µM (inactive). Besides, the GI50 in assay [19] and in assay [20] was > 100 µM (inactive) in each case.

On to `CC(=O)NC1C(OCc2ccccc2)OC(CO)C(O)C1OCC(=O)NC(C)C(=O)NC(CCC(=O)NCCCCCC(=O)Nc1ccc2c(c1)CN1C(=O)c3ccccc3C1=N2)C(N)=O` (stereo not drawn), for which the GI50 was > 100 µM (inactive) in assay [1]; > 100 µM (inactive) in assay [2]; 63.1 µM (inactive) in assay [3]; > 100 µM (inactive) in [4]; 57.3 µM (inactive) in assay [5]; 45 µM (inactive) in assay [6]. Also, the GI50 in [7] was 35.6 µM (inactive); in [8], > 100 µM (inactive); in assay [9] it was 75 µM (inactive); in [10] it was > 100 µM (inactive); in assay [11], 58.6 µM (inactive); in [12] it was 49.8 µM (inactive). For the same compound, the GI50 is over 100 µM in assay [13]; > 100 µM (inactive) in assay [14]; 34.5 µM (inactive) in [15]; 25.3 µM (inactive) in assay [16]; > 100 µM (inactive) in assay [17]; 69.8 µM (inactive) in assay [18]. Moreover, the GI50 in assay [19] was 62.8 µM (inactive); in assay [20], > 100 µM (inactive).

On to `COC(=O)Nc1nc2cc(NC(=O)c3ccc(I)cc3)ccc2[nH]1`, for which the GI50 in assay [1] was > 100 µM (inactive); in assay [2], > 100 µM (inactive); in [3], > 100 µM (inactive); in assay [4], 84.1 µM (inactive); in [5], > 100 µM (inactive); in assay [6] it was > 100 µM (inactive). The GI50 was > 100 µM (inactive) in assay [7]; > 100 µM (inactive) in assay [8]; > 100 µM (inactive) in assay [9]; > 100 µM (inactive) in [10]; > 100 µM (inactive) in assay [11]; 96.8 µM (inactive) in assay [12]. In addition, the GI50 was over 100 µM in [13]; > 100 µM (inactive) in assay [14]; > 100 µM (inactive) in assay [15]; > 100 µM (inactive) in [16]; > 100 µM (inactive) in [17]; > 100 µM (inactive) in assay [18]. Moreover, the GI50 in assay [19] and in assay [20] was > 100 µM (inactive) each time.

Consider `O=C1/C(=C2/C(=O)N(c3ccccc3)c3ccccc32)Nc2ccccc21`, for which the GI50 in assay [1] is 38.1 µM (inactive); in assay [2] it was 52 µM (inactive); in [3], 29.6 µM (inactive); in assay [4] it was 58.2 µM (inactive); in [5] it was > 100 µM (inactive); in assay [6], 42.2 µM (inactive). The GI50 was 11.9 µM (inactive) in assay [7]; 15 µM (inactive) in assay [8]; 22.3 µM (inactive) in assay [9]; 0.571 µM (active) in assay [10]; 26.7 µM (inactive) in assay [11]; 14.9 µM (inactive) in assay [12]. Besides, the GI50 in [13] is 50 µM; in assay [14] it was 35.5 µM (inactive); in [15], > 100 µM (inactive); in [16] it was 25.9 µM (inactive); in assay [17] it was 19.8 µM (inactive); in assay [18] it was 59.8 µM (inactive). Besides, the GI50 was 21.2 µM (inactive) in assay [19] and 51.1 µM (inactive) in [20].

Take `Cc1c(C#N)c2nnn(-c3ccc([N+](=O)[O-])cc3)c(=O)n2c1-c1ccccc1`: the GI50 in [1] is 11.4 µM (inactive); in [2], 3.03 µM (inactive); in [3] it was 11.6 µM (inactive); in assay [4], 25.5 µM (inactive); in assay [5], 6.19 µM (inactive); in assay [6] it was 3.37 µM (inactive). The GI50 in assay [7] was 6.22 µM (inactive); in assay [8], 16.5 µM (inactive); in assay [9], 12.6 µM (inactive); in assay [10] it was 3.49 µM (inactive); in assay [11], 4.26 µM (inactive); in assay [12], 19.8 µM (inactive). The GI50 was 6.15 µM in assay [13]; 9.57 µM (inactive) in assay [14]; 5.6 µM (inactive) in assay [15]; 8.05 µM (inactive) in [16]; 15.3 µM (inactive) in assay [17]; 11.5 µM (inactive) in [18]. The figures for the GI50 in assay [19] and in [20] were 4.95 µM (inactive) and 17.1 µM (inactive), respectively.

In the case of `COc1cc2c(SCCN(C)C)nc3ccccc3c2c2ccccc12`, the GI50 in assay [1] is 1.68 µM (inactive); in assay [2], 2.34 µM (inactive); in assay [3], 2.45 µM (inactive); in [4] it was 2.13 µM (inactive); in assay [5] it was 1.63 µM (inactive); in assay [6], 1.72 µM (inactive). The GI50 was 1.66 µM (inactive) in assay [7]; 1.93 µM (inactive) in [8]; 1.83 µM (inactive) in assay [9]; 2.7 µM (inactive) in assay [10]; 2.22 µM (inactive) in assay [11]; 2.51 µM (inactive) in assay [12]. The GI50 was 1.61 µM in assay [13]; 1.87 µM (inactive) in assay [14]; 1.56 µM (inactive) in assay [15]; 1.73 µM (inactive) in [16]; 1.3 µM (inactive) in assay [17]; 2.52 µM (inactive) in assay [18]. Moreover, the GI50 is 1.78 µM (inactive) in assay [19] and 1.64 µM (inactive) in assay [20].

Regarding `COc1cc(/C=C2\CC3C4CC[C@H]5C[C@@H](O)CC[C@]5(C)C4CC[C@]3(C)\C2=N\O)cc(OC)c1OC` (stereo partly drawn), the GI50 was 14.4 µM (inactive) in assay [1]; 3.27 µM (inactive) in assay [2]; 29.7 µM (inactive) in [3]; 8.3 µM (inactive) in assay [4]; 14.3 µM (inactive) in assay [5]; 4.66 µM (inactive) in assay [6]. In addition, the GI50 is 4.05 µM (inactive) in assay [7]; 7.74 µM (inactive) in assay [8]; 5.21 µM (inactive) in assay [9]; 4.73 µM (inactive) in [10]; 5.43 µM (inactive) in assay [11]; 13.4 µM (inactive) in assay [12]. Besides, the GI50 is 9.48 µM in [13]; 11.7 µM (inactive) in assay [14]; 6.9 µM (inactive) in assay [15]; 15.2 µM (inactive) in [16]; 23 µM (inactive) in assay [17]; 13.7 µM (inactive) in [18]. Besides, the GI50 in assay [19] is 6.59 µM (inactive); in assay [20] it was 22.1 µM (inactive).
